This is an account of results in PubChem BioAssay AID1918945 (Molecular Pharmacology Branch, DTP, NCI, 2023).

This assay relates to 883617-216-R-J1-PDC complex spheroid viability. Kind of assay: Anticancer human tumor 883617-216-R-J1-PDC patient-derived bladder carcinoma cell line growth inhibition. The following applies: for viability, T/C: stronger effect = lower value. The method, boiled down:
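Complex spheroids of tumor cells with HUVEC and human MSCs, exposed to iadademstat combined with other agents. Each agent tested in half-log steps from near clinical Cmax (else 10 microM top), DMSO ≤0.25%.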

[1] abbreviates: curve of first compound, second compound 0.1 µM.
Where [2] appears, read: curve of first compound, second compound 0.316 µM.
The mark [3] stands for this setting: curve of first compound, second compound 1 µM.
[4] abbreviates: curve of first compound, second compound 3.16 µM.
Setting [5] is: curve of first compound, second compound 10 µM.
Where [6] appears, read: second compound 0.1 µM, first compound 0.00316 µM.
[7] abbreviates: second compound 0.1 µM, first compound 0.01 µM.
The mark [8] stands for this setting: second compound 0.1 µM, first compound 0.0316 µM.
Where [9] appears, read: second compound 0.1 µM, first compound 0.1 µM.
Where [10] appears, read: second compound 0.1 µM, first compound 0.316 µM.
[11] abbreviates: second compound 0.1 µM, first compound 1 µM.
The mark [12] stands for this setting: second compound 0.316 µM, first compound 0.00316 µM.
[13] abbreviates: second compound 0.316 µM, first compound 0.01 µM.
Where [14] appears, read: second compound 0.316 µM, first compound 0.0316 µM.
The mark [15] stands for this setting: second compound 0.316 µM, first compound 0.1 µM.
Setting [16] is: second compound 0.316 µM, first compound 0.316 µM.
Where [17] appears, read: second compound 0.316 µM, first compound 1 µM.
[18] abbreviates: second compound 1 µM, first compound 0.00316 µM.
Where [19] appears, read: second compound 1 µM, first compound 0.01 µM.
Where [20] appears, read: second compound 1 µM, first compound 0.0316 µM.
Setting [21] is: second compound 1 µM, first compound 0.1 µM.
The mark [22] stands for this setting: second compound 1 µM, first compound 0.316 µM.
[23] abbreviates: second compound 1 µM, first compound 1 µM.
[24] abbreviates: second compound 3.16 µM, first compound 0.00316 µM.
The mark [25] stands for this setting: second compound 3.16 µM, first compound 0.01 µM.
Setting [26] is: second compound 3.16 µM, first compound 0.0316 µM.
[27] abbreviates: second compound 3.16 µM, first compound 0.1 µM.
Where [28] appears, read: second compound 3.16 µM, first compound 0.316 µM.
Setting [29] is: second compound 3.16 µM, first compound 1 µM.
The mark [30] stands for this setting: second compound 10 µM, first compound 0.00316 µM.
Setting [31] is: second compound 10 µM, first compound 0.01 µM.
[32] abbreviates: second compound 10 µM, first compound 0.0316 µM.
[33] abbreviates: second compound 10 µM, first compound 0.1 µM.
Where [34] appears, read: second compound 10 µM, first compound 0.316 µM.
Where [35] appears, read: second compound 10 µM, first compound 1 µM.
The mark [36] stands for this setting: second compound 0.1 µM, first compound 0.000316 µM.
The mark [37] stands for this setting: second compound 0.1 µM, first compound 0.001 µM.
Setting [38] is: second compound 0.316 µM, first compound 0.000316 µM.
Setting [39] is: second compound 0.316 µM, first compound 0.001 µM.
Where [40] appears, read: second compound 1 µM, first compound 0.000316 µM.
Where [41] appears, read: second compound 1 µM, first compound 0.001 µM.
Where [42] appears, read: second compound 3.16 µM, first compound 0.000316 µM.
The mark [43] stands for this setting: second compound 3.16 µM, first compound 0.001 µM.
The mark [44] stands for this setting: second compound 10 µM, first compound 0.000316 µM.
The mark [45] stands for this setting: second compound 10 µM, first compound 0.001 µM.

“And” between values parts separate entries of the source, which are not always exact repeats. Equal entries are not always repeated. Where only a bound is given, the exact number is not on record here.
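Further: exposure lasted seven days after three days of spheroid growth.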
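Wherever viability, T/C is given: 100% = DMSO vehicle control luminescence.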

As for `Nc1ncn(C2CC(O)C(CO)O2)c(=O)n1` (stereo not given) + NC1CC1c1ccc(-c2cccc(O)c2)cc1, the IC50 is, setting by setting: under setting [1], above 1000 nM; under setting [2], above 1000 nM; under setting [3], above 1000 nM; under setting [4], above 1000 nM; under setting [5], above 1000 nM. The viability, T/C by setting is: under setting [6], 104%; under setting [7], 101%; under setting [8], 87.3%; under setting [9], 75.2%; under setting [10], 64.7%; under setting [11], 56.8%. The viability, T/C is, setting by setting: under setting [12], 110%; under setting [13], 108%; under setting [14], 87.5%; under setting [15], 76.5%; under setting [16], 67.7%; under setting [17], 65.1%. For the same compound, the viability, T/C was 110% under setting [18]; 122% under setting [19]; 96.8% under setting [20]; 83% under setting [21]; 65.9% under setting [22]; 56.1% under setting [23]. For the same compound, the viability, T/C reads like this: under setting [24], 107%; under setting [25], 114%; under setting [26], 92.9%; under setting [27], 74.8%; under setting [28], 60.5%; under setting [29], 51.8%. For the same compound, the viability, T/C under setting [30] was 107%; the viability, T/C under setting [31] was 86.5%; the viability, T/C under setting [32] is 74%; the viability, T/C under setting [33] was 64.5%; the viability, T/C under setting [34] was 61.7%; the viability, T/C under setting [35] is 52.1%.

In the case of `NC1CCC(NC2CC2c2ccccc2)CC1` (stereo not given), the viability, T/C (compound 0.1 µM) is 103% [middle of 25 runs]; the viability, T/C (compound 0.316 µM) is 107% and 112%; the viability, T/C (compound 1 µM) is 104% [middle of 25 runs]; the viability, T/C (compound 3.16 µM) was 105% [middle of 25 runs]; the viability, T/C (compound 10 µM) is 107% [middle of 23 runs]. For the same compound, under “compound alone, run of 11/29/2021”, the IC50 is above 10000 nM.

On to `CC(C)CC(NC(=O)C(Cc1ccccc1)NC(=O)c1cnccn1)B(O)O` (stereo not given) + NC1CCC(NC2CC2c2ccccc2)CC1, for which the IC50 under setting [1] was 1.85 nM; the IC50 under setting [2] was 1.79 nM; the IC50 under setting [3] amounted to 1.59 nM; the IC50 under setting [4] was 1.62 nM; the IC50 under setting [5] came out at 1.76 nM. Besides, the viability, T/C is 105% under setting [36]; 92.2% under setting [37]; 13.2% under setting [6]; 3.29% under setting [7]; 2.15% under setting [8]; 0.25% under setting [9]. Besides, the viability, T/C was 112% under setting [38]; 91.8% under setting [39]; 8.98% under setting [12]; 1.9% under setting [13]; 0.32% under setting [14]; 0.82% under setting [15]. The viability, T/C runs as follows: under setting [40], 108%; under setting [41], 74.6%; under setting [18], 13.2%; under setting [19], 1.21%; under setting [20], 0.94%; under setting [21], 0.72%. The viability, T/C by setting is: under setting [42], 112%; under setting [43], 79.6%; under setting [24], 9.32%; under setting [25], 1.86%; under setting [26], 1.46%; under setting [27], 0.83%. Moreover, the viability, T/C under setting [44] was 101%; the viability, T/C under setting [45] was 92.5%; the viability, T/C under setting [30] is 6.31%; the viability, T/C under setting [31] is 0.91%; the viability, T/C under setting [32] is 0.79%; the viability, T/C under setting [33] was 0.32%.

As for `NC1CC1c1ccc(-c2cccc(O)c2)cc1` (stereo not given), the viability, T/C (compound 0.1 µM) was 107%. For the same compound, the IC50 (compound alone, run of 12/07/2021) is above 10000 nM.

Take `CC(C)CC(NC(=O)C(Cc1ccccc1)NC(=O)c1cnccn1)B(O)O` (stereo not given) + NC1CC1c1ccc(-c2cccc(O)c2)cc1: the IC50 under setting [1] stood at 0.874 nM; the IC50 under setting [2] is 0.885 nM; the IC50 under setting [3] worked out at 0.949 nM; the IC50 under setting [4] worked out at 0.798 nM; the IC50 under setting [5] was found to be 0.581 nM. In addition, the viability, T/C runs as follows: under setting [36], 104%; under setting [37], 42.8%; under setting [6], 0.61%; under setting [7], 0.03%; under setting [8], 0.03%; under setting [9], 0.12%. For the same compound, the viability, T/C was 108% under setting [38]; 43.1% under setting [39]; 0.43% under setting [12]; 0.02% under setting [13]; 0.02% under setting [14]; 0.12% under setting [15]. Besides, the viability, T/C under setting [40] is 124%; the viability, T/C under setting [41] is 46.5%; the viability, T/C under setting [18] is 0.86%; the viability, T/C under setting [19] was 0.02%; the viability, T/C under setting [20] is 0.02%; the viability, T/C under setting [21] was 0.56%. Also, the viability, T/C under setting [42] was 108%; the viability, T/C under setting [43] was 35.9%; the viability, T/C under setting [24] was 1.57%; the viability, T/C under setting [25] was 0.04%; the viability, T/C under setting [26] was 0.04%; the viability, T/C under setting [27] is 0.3%. Moreover, the viability, T/C was 82.5% under setting [44]; 21% under setting [45]; 0.27% under setting [30]; 0.21% under setting [31]; 0.61% under setting [32]; 0.22% under setting [33].

Turning to `CC1COCCN1c1cc(-c2ccnn2C)c2ccnc(-c3ccn[nH]3)c2n1` (stereo not given) + NC1CCC(NC2CC2c2ccccc2)CC1, the IC50 worked out at 39.5 nM under setting [1]; 32.1 nM under setting [2]; 33.8 nM under setting [3]; 44.3 nM under setting [4]; 45.8 nM under setting [5]. Besides, the viability, T/C under setting [6] is 85%; the viability, T/C under setting [7] is 62.2%; the viability, T/C under setting [8] was 55.7%; the viability, T/C under setting [9] was 41.2%; the viability, T/C under setting [10] was 33.5%; the viability, T/C under setting [11] is 31.5%. Moreover, the viability, T/C under setting [12] was 89.8%; the viability, T/C under setting [13] is 62%; the viability, T/C under setting [14] is 53.6%; the viability, T/C under setting [15] is 40.4%; the viability, T/C under setting [16] is 34%; the viability, T/C under setting [17] is 30.8%. For the same compound, the viability, T/C under setting [18] is 81.8%; the viability, T/C under setting [19] is 60.2%; the viability, T/C under setting [20] was 50.4%; the viability, T/C under setting [21] is 43.8%; the viability, T/C under setting [22] is 35.1%; the viability, T/C under setting [23] was 28.4%. Moreover, the viability, T/C by setting is: under setting [24], 76.3%; under setting [25], 59%; under setting [26], 51.3%; under setting [27], 47.2%; under setting [28], 36.1%; under setting [29], 28.3%. Also, the viability, T/C under setting [30] is 88.4%; the viability, T/C under setting [31] is 66.7%; the viability, T/C under setting [32] was 52.7%; the viability, T/C under setting [33] was 45.5%; the viability, T/C under setting [34] was 32.1%; the viability, T/C under setting [35] is 25.5%.

Take `O=C(C=Cn1cnc(-c2cc(C(F)(F)F)cc(C(F)(F)F)c2)n1)NNc1cnccn1`: the viability, T/C was 87.2% and 64.4% (compound 0.00316 µM); 56.7% and 27.2% (compound 0.01 µM); 35.6% and 23.6% (compound 0.0316 µM); 31.5% and 16.4% (compound 0.1 µM); 28.4% and 14.6% (compound 0.316 µM); 23.4% and 14.3% (compound 1 µM). For the same compound, the IC50 (curve of compound) was 14.6 nM and 5.02 nM.

As usually defined, the IC50 is the point on the concentration scale where inhibition reaches its midpoint. In general, viability, T/C refers to the ratio of treated to control.
